Assay results from ChEMBL document CHEMBL3797052 (Eur J Med Chem, 2016).

Tested on: not listed separately
Assay: Antiproliferative activity against human SKOV3 cells assessed as growth inhibition after 48 hrs by sulforhodamine B assay
Format: functional
Details: SK-OV-3, 48 h
CNC(=O)c1cc(Oc2ccc3nc(NC(=O)Nc4cc(C(F)(F)F)cc(C(F)(F)F)c4)sc3c2)ccn1 gave a GI50 of 1.43 µM and a TGI of 3.18 µM.

Same assay, conditions: SK-OV-3, 48 h, read-out: LC50 (the source's name)
CNC(=O)c1cc(Oc2ccc3nc(NC(=O)Nc4cc(C(F)(F)F)cc(C(F)(F)F)c4)sc3c2)ccn1 gave a CC50 of 7.09 µM.

Tested on: HT-29
Assay: Antiproliferative activity against human HT-29 cells assessed as cell growth at 10^-7 M after 48 hrs by sulforhodamine B assay
Format: functional
Details: HT-29, 48 h, read-out: Activity
CNC(=O)c1cc(Oc2ccc3nc(NC(=O)Nc4cc(C(F)(F)F)cc(C(F)(F)F)c4)sc3c2)ccn1 showed a growth at 0.1 µM of 97%.

Tested on: SK-MEL-2
Assay: Antiproliferative activity against human SK-MEL-2 cells assessed as cell growth at 10^-6 M after 48 hrs by sulforhodamine B assay
Format: functional
Details: SK-MEL-2, 48 h, read-out: Activity
Molecule CNC(=O)c1cc(Oc2ccc3nc(NC(=O)Nc4cc(C(F)(F)F)cc(C(F)(F)F)c4)sc3c2)ccn1 has a growth at 1 µM of 52%.

Tested on: A498
Assay: Antiproliferative activity against human A498 cells assessed as growth inhibition after 48 hrs by sulforhodamine B assay
Format: functional
Details: A498, 48 h
CNC(=O)c1cc(Oc2ccc3nc(NC(=O)Nc4cc(C(F)(F)F)cc(C(F)(F)F)c4)sc3c2)ccn1 gave a GI50 of 1.02 µM, an LC50 (concentration killing 50% of cells) of 5.97 µM and a TGI of 2.47 µM.

Tested on: SN12C
Assay: Antiproliferative activity against human SN12C cells assessed as growth inhibition after 48 hrs by sulforhodamine B assay
Format: functional
Details: not given
For CNC(=O)c1cc(Oc2ccc3nc(NC(=O)Nc4cc(C(F)(F)F)cc(C(F)(F)F)c4)sc3c2)ccn1, the GI50 was 1.64 µM and the TGI was 3.79 µM.

Same assay, conditions: read-out: LC50 (the source's name)
For CNC(=O)c1cc(Oc2ccc3nc(NC(=O)Nc4cc(C(F)(F)F)cc(C(F)(F)F)c4)sc3c2)ccn1, the CC50 was 8.76 µM.

Tested on: not listed separately
Assay: Antiproliferative activity against human SKOV3 cells assessed as cell growth at 10^-6 M after 48 hrs by sulforhodamine B assay
Format: functional
Details: SK-OV-3, 48 h, read-out: Activity
Molecule CNC(=O)c1cc(Oc2ccc3nc(NC(=O)Nc4cc(C(F)(F)F)cc(C(F)(F)F)c4)sc3c2)ccn1 has a growth at 1 µM of 72%.

Tested on: M14
Assay: Antiproliferative activity against human M14 cells assessed as cell growth at 10^-4 M after 48 hrs by sulforhodamine B assay
Format: functional
Details: M14, 48 h, read-out: Activity
With CNC(=O)c1cc(Oc2ccc3nc(NC(=O)Nc4cc(C(F)(F)F)cc(C(F)(F)F)c4)sc3c2)ccn1 the growth at 100 µM was -73%.

Tested on: A549
Assay: Antiproliferative activity against human A549/ATCC cells assessed as growth inhibition after 48 hrs by sulforhodamine B assay
Format: functional
Details: A549, 48 h
With CNC(=O)c1cc(Oc2ccc3nc(NC(=O)Nc4cc(C(F)(F)F)cc(C(F)(F)F)c4)sc3c2)ccn1 the GI50 was 1.3 µM and the TGI was 2.67 µM.

Same assay, conditions: A549, 48 h, read-out: LC50 (the source's name)
CNC(=O)c1cc(Oc2ccc3nc(NC(=O)Nc4cc(C(F)(F)F)cc(C(F)(F)F)c4)sc3c2)ccn1 gave a CC50 of 5.51 µM.

Tested on: not listed separately
Assay: Antiproliferative activity against human HOP62 cells assessed as cell growth at 10^-4 M after 48 hrs by sulforhodamine B assay
Format: functional
Details: HOP-62, 48 h, read-out: Activity
Work on CNC(=O)c1cc(Oc2ccc3nc(NC(=O)Nc4cc(C(F)(F)F)cc(C(F)(F)F)c4)sc3c2)ccn1 yielded a growth at 100 µM of -76%.

Tested on: NCI-H522
Assay: Antiproliferative activity against human NCI-H522 cells assessed as cell growth at 10^-7 M after 48 hrs by sulforhodamine B assay
Format: functional
Details: NCI-H522, 48 h, read-out: Activity
CNC(=O)c1cc(Oc2ccc3nc(NC(=O)Nc4cc(C(F)(F)F)cc(C(F)(F)F)c4)sc3c2)ccn1 showed a growth at 0.1 µM of 97%.

Tested on: not listed separately
Assay: Antiproliferative activity against human HCT15 cells assessed as cell growth at 10^-6 M after 48 hrs by sulforhodamine B assay
Format: functional
Details: HCT-15, 48 h, read-out: Activity
Molecule CNC(=O)c1cc(Oc2ccc3nc(NC(=O)Nc4cc(C(F)(F)F)cc(C(F)(F)F)c4)sc3c2)ccn1 has a growth at 1 µM of 76%.

Tested on: not listed separately
Assay: Antiproliferative activity against human HCC2998 cells assessed as cell growth at 10^-4 M after 48 hrs by sulforhodamine B assay
Format: functional
Details: HCC 2998, 48 h, read-out: Activity
CNC(=O)c1cc(Oc2ccc3nc(NC(=O)Nc4cc(C(F)(F)F)cc(C(F)(F)F)c4)sc3c2)ccn1 gave a growth at 100 µM of -74%.

Tested on: NCI-H522
Assay: Antiproliferative activity against human NCI-H522 cells assessed as cell growth at 10^-8 M after 48 hrs by sulforhodamine B assay
Format: functional
Details: NCI-H522, 48 h, read-out: Activity
CNC(=O)c1cc(Oc2ccc3nc(NC(=O)Nc4cc(C(F)(F)F)cc(C(F)(F)F)c4)sc3c2)ccn1 showed a growth at 0.01 µM of 95%.

Tested on: M14
Assay: Antiproliferative activity against human M14 cells assessed as cell growth at 10^-8 M after 48 hrs by sulforhodamine B assay
Format: functional
Details: M14, 48 h, read-out: Activity
Work on CNC(=O)c1cc(Oc2ccc3nc(NC(=O)Nc4cc(C(F)(F)F)cc(C(F)(F)F)c4)sc3c2)ccn1 yielded a growth at 0.01 µM of 91%.

Tested on: SR
Assay: Antiproliferative activity against human SR cells assessed as cell growth at 10^-4 M after 48 hrs by sulforhodamine B assay
Format: functional
Details: read-out: Activity
CNC(=O)c1cc(Oc2ccc3nc(NC(=O)Nc4cc(C(F)(F)F)cc(C(F)(F)F)c4)sc3c2)ccn1 gave a growth at 100 µM of -53%.

Tested on: CCRF-CEM
Assay: Antiproliferative activity against human CCRF-CEM cells assessed as cell growth at 10^-6 M after 48 hrs by sulforhodamine B assay
Format: functional
Details: read-out: Activity
CNC(=O)c1cc(Oc2ccc3nc(NC(=O)Nc4cc(C(F)(F)F)cc(C(F)(F)F)c4)sc3c2)ccn1 showed a growth at 1 µM of 52%.

Molecular target: Voltage-gated inwardly rectifying potassium channel KCNH2 (Homo sapiens, UniProt Q12809)
Sequence (Q12809 whole entry): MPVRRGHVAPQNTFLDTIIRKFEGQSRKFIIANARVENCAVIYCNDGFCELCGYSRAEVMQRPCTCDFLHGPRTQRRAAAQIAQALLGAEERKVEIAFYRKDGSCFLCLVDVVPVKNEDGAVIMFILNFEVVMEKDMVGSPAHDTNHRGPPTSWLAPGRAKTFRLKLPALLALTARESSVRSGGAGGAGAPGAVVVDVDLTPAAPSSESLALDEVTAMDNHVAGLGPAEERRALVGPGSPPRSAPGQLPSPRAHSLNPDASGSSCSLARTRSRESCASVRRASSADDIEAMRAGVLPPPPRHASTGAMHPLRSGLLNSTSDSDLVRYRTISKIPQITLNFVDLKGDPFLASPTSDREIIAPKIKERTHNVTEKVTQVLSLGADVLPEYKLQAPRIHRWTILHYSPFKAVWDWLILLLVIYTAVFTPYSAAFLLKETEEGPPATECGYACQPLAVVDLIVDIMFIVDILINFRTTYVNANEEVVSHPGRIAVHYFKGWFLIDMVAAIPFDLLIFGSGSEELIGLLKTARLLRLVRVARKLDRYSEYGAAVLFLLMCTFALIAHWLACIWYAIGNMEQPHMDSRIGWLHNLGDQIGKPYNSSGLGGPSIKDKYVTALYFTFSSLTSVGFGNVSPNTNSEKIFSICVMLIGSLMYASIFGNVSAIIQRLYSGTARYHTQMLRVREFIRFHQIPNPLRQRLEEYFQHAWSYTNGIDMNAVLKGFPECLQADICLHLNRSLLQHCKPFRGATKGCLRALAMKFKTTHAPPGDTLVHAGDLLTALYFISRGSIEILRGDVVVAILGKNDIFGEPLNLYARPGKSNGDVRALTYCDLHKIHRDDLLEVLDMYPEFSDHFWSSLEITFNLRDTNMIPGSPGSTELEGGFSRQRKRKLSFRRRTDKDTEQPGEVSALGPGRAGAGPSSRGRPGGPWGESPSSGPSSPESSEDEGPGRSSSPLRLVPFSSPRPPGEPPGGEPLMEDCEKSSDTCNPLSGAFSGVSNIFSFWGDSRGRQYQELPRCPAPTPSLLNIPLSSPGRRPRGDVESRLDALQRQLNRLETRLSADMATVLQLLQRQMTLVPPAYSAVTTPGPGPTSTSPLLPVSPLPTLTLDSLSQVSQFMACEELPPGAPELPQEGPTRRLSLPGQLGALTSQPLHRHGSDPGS
Assay: Inhibition of human ERG assessed as reduction in channel current by automated patch-clamp electrophysiology assay
Details: not given
For CNC(=O)c1cc(Oc2ccc3nc(NC(=O)Nc4cc(C(F)(F)F)cc(C(F)(F)F)c4)sc3c2)ccn1, the IC50 was over 100 µM.
